Molecular target: T1, GHS-R1a receptor (ghrelin receptor) (Homo sapiens, UniProt Q92847)
T1 construct: gene GHSR; human GHS-R1a with C-terminal EGFP tag, stably expressed in Hek293a cells
Experiment: calcium mobilisation in Hek-GHS-R1a-EGFP cells; no response in wild-type Hek or 5-HT2C cells; reduced by JMV2959
Assay type: cell-based

T1 sequence (Q92847 whole entry): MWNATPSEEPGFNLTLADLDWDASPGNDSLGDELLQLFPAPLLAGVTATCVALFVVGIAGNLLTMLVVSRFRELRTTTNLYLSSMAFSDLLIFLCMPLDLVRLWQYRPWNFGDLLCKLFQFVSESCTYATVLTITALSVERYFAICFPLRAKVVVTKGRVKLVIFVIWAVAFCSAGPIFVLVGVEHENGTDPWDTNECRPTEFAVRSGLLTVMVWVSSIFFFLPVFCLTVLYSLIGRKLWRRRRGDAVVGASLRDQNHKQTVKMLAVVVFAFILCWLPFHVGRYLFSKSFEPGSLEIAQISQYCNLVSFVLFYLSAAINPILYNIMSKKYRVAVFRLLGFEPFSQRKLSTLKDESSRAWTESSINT

## COc1cc(C)n(C)c(=O)c1C(F)(F)F [compound 8, 4-Methoxy-1,6-dimethyl-3-(trifluoromethyl)pyridin-2(1H)-one]
  EC50: 3.1 µM

From publication PMC5098229, “A Novel Non-Peptidic Agonist of the Ghrelin Receptor with Orexigenic Activity In vivo” (Scientific Reports, 2016)
